For one data set, the system named is IL-17. Nature of the data set: Inhibition of IL-17 release from mouse splenocytes (PMA + ionomycin, ELISA). The format is cell-based, Balb/c mice. The following applies: Splenocyte, 10 μM, 3 h. The method in brief: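 Balb/c splenocytes (1×10^6 cells/ml, RPMI) were pretreated with inhibitor for 15 min, then stimulated with 10 ng/ml PMA plus 1 μM ionomycin. Supernatant IL-17 was measured by ELISA after 3 h. IC50 was derived from percent inhibition relative to control.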

The next data set concerns the target T1, h-DHODH (Homo sapiens, UniProt Q02127).
T1 construct: endogenous in cells; host or cells: U937 cells (membrane fraction, solubilised with 1% octyl glucoside)
The data set can be described thus: Dihydro-orotate dehydrogenase inhibition assay (U937 membrane preparations, DCIP reduction). The format is biochemical. The following applies: U937 membrane preparation; for inhibition at 0.3 µM: compound tested at 0.3 uM (footnote *). In outline: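 Detergent (1% octyl glucoside) extract of U937 cell membranes; dihydro-orotate-driven DCIP reduction followed as absorbance change at 600 nm after 4 h at 37° C. IC50 derived from percent inhibition of […].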

T1 sequence (Q02127 whole entry): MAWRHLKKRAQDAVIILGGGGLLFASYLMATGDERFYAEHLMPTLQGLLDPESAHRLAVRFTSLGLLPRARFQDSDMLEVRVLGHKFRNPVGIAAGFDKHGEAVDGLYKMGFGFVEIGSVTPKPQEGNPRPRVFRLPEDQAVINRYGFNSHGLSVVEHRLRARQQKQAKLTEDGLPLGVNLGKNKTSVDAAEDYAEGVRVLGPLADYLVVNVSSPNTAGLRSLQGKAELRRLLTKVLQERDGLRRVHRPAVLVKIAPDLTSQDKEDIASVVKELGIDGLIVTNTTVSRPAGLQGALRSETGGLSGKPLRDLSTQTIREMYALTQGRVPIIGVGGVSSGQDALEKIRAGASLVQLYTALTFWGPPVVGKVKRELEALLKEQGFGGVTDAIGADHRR

As to `CCOc1cccc(-c2cc(F)c(NC(=O)c3nccnc3C(=O)O)c(F)c2)c1` [Example 7, 3-(3,5-Difluoro-3′-ethoxybiphenyl-4-ylcarbamoyl)pyrazine-2-carboxylic acid], the melting point was in the range of 133.4 to 137.3 °C. The inhibition at 10 µM in the data set on IL-17 was 8.58%. This molecule returned an inhibition at 1 µM against h-DHODH of 4.53%.

In turn, `CCOc1cccc(-c2cc(F)c(NC(=O)c3ccncc3C(=O)O)c(F)c2)c1` [Example 77, 4-(3′-ethoxy-3,5-difluorobiphenyl-4-ylcarbamoyl)nicotinic acid] came in with a melting point of 219 to 221 °C. For the same molecule, the inhibition at 10 µM in the data set with IL-17 was found to be 9.25%. The molecule further registered an inhibition at 0.3 µM on h-DHODH of 50.2%.

Molecule `COc1cccc(-c2cc(Cl)c(NC(=O)c3ccccc3C(=O)O)c(Cl)c2)c1` [Example 18, 2-(3,5-Dichloro-3′-methoxybiphenyl-4-ylcarbamoyl)benzoic acid] yielded a melting point of 163 to 168 °C. In addition, the inhibition at 10 µM in the data set with IL-17 came out at 12.1%. Moreover, on h-DHODH, at 1 µM the inhibition was 62.2% and the IC50 came to 294 nM.

For the molecule `CCOc1cccc(-c2cc(Cl)c(NC(=O)c3ccccc3C(=O)O)c(Cl)c2)c1` [Example 21, 2-(3,5-Dichloro-3′-ethoxybiphenyl-4-ylcarbamoyl)benzoic acid], the melting point lay within 135.9 to 138.2 °C. Besides, the inhibition at 10 µM in the data set with IL-17 is 17.8%. This molecule also yielded an inhibition at 1 µM against h-DHODH of 56.4%.

Regarding `CCOc1cccc(-c2cc(F)c(NC(=O)c3ncccc3C(=O)O)c(F)c2)c1` [Example 76, 2-(3′-ethoxy-3,5-difluorobiphenyl-4-ylcarbamoyl)nicotinic acid], the melting point lay within 207 to 210 °C. Further, the inhibition at 10 µM with IL-17 was 7.88%. Also, at h-DHODH, the inhibition at 0.3 µM turned out to be 44%.

On to `CCOc1cccc(-c2cc(F)c(NC(=O)c3ccccc3C(=O)O)c(Cl)c2)c1` [Example 15, 2-(3-Chloro-3′-ethoxy-5-fluorobiphenyl-4-ylcarbamoyl)benzoic acid], for which the melting point is 135 to 140 °C. The inhibition at 10 µM with IL-17 stood at 57.5%. Further, at h-DHODH, testing at 1 µM gave an inhibition of 75.5% and the IC50 is 129 nM.

`O=C(O)c1ccccc1C(=O)Nc1ccc(-c2ccccc2F)cc1OC(F)(F)F` [Example 23, 2-[2′-Fluoro-3-(trifluoromethoxy)biphenyl-4-ylcarbamoyl]benzoic acid] registered a melting point of 142.2 to 148.1 °C. Further, in the data set with IL-17, the inhibition at 10 µM came to 15%. This molecule showed an inhibition at 1 µM against h-DHODH of 47.2%.

`CCOc1cccc(-c2ccc(NC(=O)c3ccccc3C(=O)O)c(F)c2)c1` [Example 4, 2-(3′-Ethoxy-3-fluorobiphenyl-4-ylcarbamoyl)benzoic acid] yielded a melting point of 151 to 157 °C. The inhibition at 10 µM with IL-17 came out at 11.2%. In addition, the inhibition at 1 µM on h-DHODH is 43%.

`CCOc1cccc(-c2cc(F)c(NC(=O)c3cc(Cl)c(Cl)cc3C(=O)O)c(F)c2)c1` [Example 17, 4,5-Dichloro-2-(3′-ethoxy-3,5-difluorobiphenyl-4-ylcarbamoyl)benzoic acid] came in with a melting point of 190.1 to 192.4 °C. In addition, the inhibition at 10 µM in the data set with IL-17 was 11.1%. Also, the inhibition at 1 µM on h-DHODH was 50.3%.

On to `O=C(O)c1ccccc1C(=O)Nc1c(F)cc(-c2ccccc2F)cc1Cl` [Example 20, 2-(3-Chloro-2′,5-difluorobiphenyl-4-ylcarbamoyl)benzoic acid], for which the melting point lay within 163 to 167 °C. Also, in the data set with IL-17, the inhibition at 10 µM amounted to 24.3%. The same molecule showed an inhibition at 1 µM on h-DHODH of 55.4%.

Molecule `O=C(O)c1nccnc1C(=O)Nc1c(F)cc(-c2cccc(OCc3ccccc3)c2)cc1F` [Example 9, 3-[3′-(Benzyloxy)-3,5-difluorobiphenyl-4-ylcarbamoyl]pyrazine-2-carboxylic acid] yielded a melting point of 142 to 144.5 °C. The inhibition at 10 µM in the data set on IL-17 is 26.9%. At h-DHODH, this molecule gave an inhibition at 1 µM of 10.3%.

Molecule `CCOc1cccc(-c2cc(F)c(NC(=O)c3cccc(C)c3C(=O)O)c(F)c2)c1` [Example 74, 2-(3′-ethoxy-3,5-difluorobiphenyl-4-ylcarbamoyl)-6(5)-methylbenzoic acid] came in with a melting point of 138 to 140 °C. Moreover, the inhibition at 10 µM with IL-17 is 13.8%. Further, on h-DHODH, 0.3 µM produced 7.14% inhibition.

Molecule `COc1cccc(-c2cc(F)c(NC(=O)c3nccnc3C(=O)O)c(F)c2)c1` [Example 6, 3-(3,5-Difluoro-3′-methoxybiphenyl-4-ylcarbamoyl)pyrazine-2-carboxylic acid] displayed a melting point of 180.1 to 183.4 °C. In the data set on IL-17, the inhibition at 10 µM turned out to be 9.52%. At h-DHODH, this molecule registered an inhibition at 1 µM of 2.26%.

`COc1cccc(-c2cc(F)c(NC(=O)c3ccccc3C(=O)O)c(F)c2)c1` [Example 1, 2-(3,5-Difluoro-3′-methoxybiphenyl-4-ylcarbamoyl)benzoic acid] returned a melting point of 168 to 173 °C. Further, in the data set with IL-17, the inhibition at 10 µM worked out at 6.13%. At h-DHODH, this molecule had an inhibition at 1 µM of 53.3% and an IC50 of 741 nM.

Turning to `O=C(O)c1ccccc1C(=O)Nc1c(F)cc(-c2cccc(OC3CC3)c2)cc1F` [Example 73, 2-(3′-cyclopropoxy-3,5-difluorobiphenyl-4-ylcarbamoyl)benzoic acid], the melting point lay in the range of 125 to 127 °C. Also, the inhibition at 10 µM in the data set with IL-17 turned out to be 7.86%. Besides, on h-DHODH, inhibition was half-maximal at 28 nM (IC50) and at 0.3 µM the inhibition was 85%.

As for `CCOc1cccc(-c2cc(F)c(NC(=O)c3cc(Cl)c(Cl)cc3C(=O)O)c(Cl)c2)c1` [Example 14, 4,5-Dichloro-2-(3-chloro-3′-ethoxy-5-fluorobiphenyl-4-ylcarbamoyl)benzoic acid], the melting point is 260 to 265 °C. Moreover, the inhibition at 10 µM in the data set on IL-17 was determined as 13.5%. The inhibition at 1 µM on h-DHODH came to 52.2%.

For `CCCOc1cccc(-c2ccc(NC(=O)c3ccccc3C(=O)O)cc2)c1` [Example 81, 2-(3′-propoxybiphenyl-4-ylcarbamoyl)benzoic acid], the melting point lay in the range of 152 to 154 °C. The inhibition at 10 µM with IL-17 stood at 23%. The same molecule came in with an inhibition at 0.3 µM on h-DHODH of 11.2%.

The molecule `COc1cccc(-c2ccc(NC(=O)c3ccccc3C(=O)O)cc2)c1` [Example 87, 2-(3′-methoxybiphenyl-4-ylcarbamoyl)benzoic acid] gave a melting point of 243 to 247 °C. In addition, the inhibition at 10 µM with IL-17 was 20.9%. Also, on h-DHODH, at 0.3 µM the inhibition was 30.2%.

Molecule `O=C(O)c1ccccc1C(=O)Nc1c(F)cc(-c2cccc(OC3CCCC3)c2)cc1F` [Example 41, 2-[3′-(Cyclopentyloxy)-3,5-difluorobiphenyl-4-ylcarbamoyl]benzoic acid] returned a melting point of 153 to 156.5 °C. Besides, the inhibition at 10 µM in the data set on IL-17 was 7.16%. At h-DHODH, this molecule displayed an inhibition at 1 µM of 72.2% and an IC50 of 83.4 nM.

As to `O=C(O)c1cc(Cl)c(Cl)cc1C(=O)Nc1c(F)cc(-c2ccccc2Cl)cc1Cl` [Example 27, 4,5-Dichloro-2-(2′,3-dichloro-5-fluorobiphenyl-4-ylcarbamoyl)benzoic acid], the melting point fell in the range of 202.3 to 206.5 °C. The inhibition at 10 µM with IL-17 was found to be 12.4%. Further, on h-DHODH, at 1 µM the inhibition was 82.9% and inhibition was half-maximal at 147 nM (IC50).

With `CC(C)Oc1cccc(-c2cc(F)c(NC(=O)c3ccccc3C(=O)O)c(F)c2)c1` [Example 25, 2-(3,5-Difluoro-3′-isopropoxybiphenyl-4-ylcarbamoyl)benzoic acid], the melting point is 122 to 125 °C. Besides, the inhibition at 10 µM in the data set with IL-17 was 17.5%. The molecule also displayed an inhibition at 1 µM on h-DHODH of 60.2%.

Take `CCCOc1cccc(-c2ccc(NC(=O)c3ccccc3C(=O)O)c(F)c2)c1` [Example 80, 2-(3-fluoro-3′-propoxybiphenyl-4-ylcarbamoyl)benzoic acid]: the melting point lay in the range of 116 to 119 °C. In the data set with IL-17, the inhibition at 10 µM turned out to be 20.1%. On h-DHODH, this molecule registered an inhibition at 0.3 µM of 47.6%.

In turn, `CCSc1cccc(-c2cc(F)c(NC(=O)c3ccccc3C(=O)O)c(F)c2)c1` [Example 71, 2-[3′-(ethylthio)-3,5-difluorobiphenyl-4-ylcarbamoyl]benzoic acid] showed a melting point of 137.8 to 142.1 °C. Also, the inhibition at 10 µM with IL-17 came out at 27.8%. On h-DHODH, this molecule returned an inhibition at 1 µM of 84.8% and an IC50 of 53.5 nM.

Consider `CCSc1cccc(-c2ccc(NC(=O)c3ccccc3C(=O)O)cc2F)c1` [Example 82, 2-[3′-(ethylthio)-2-fluorobiphenyl-4-ylcarbamoyl]benzoic acid], for which the melting point was 74 to 76 °C. Besides, in the data set on IL-17, the inhibition at 10 µM was determined as 17.6%. Besides, 0.3 µM produced 57.9% inhibition against h-DHODH.

Regarding `COc1cccc(-c2cc(F)c(NC(=O)c3cc(Cl)c(Cl)cc3C(=O)O)c(F)c2)c1` [Example 16, 4,5-Dichloro-2-(3,5-difluoro-3′-methoxybiphenyl-4-ylcarbamoyl)benzoic acid], the melting point was 158.6 to 162.2 °C. Further, the inhibition at 10 µM in the data set with IL-17 was found to be 12.3%. The inhibition at 1 µM on h-DHODH is 28%.

The record behind these values is US8686048B2, “Immunomodulator and anti-inflammatory compounds” (Rhizen Pharmaceuticals SA, priority 2010, dated 2014).
